Source: US10793563B2, “GCN2 inhibitors and uses thereof” (Merck Patent GmbH, priority 2018, dated 2020)

Key:
GCN2 kinase = GCN2 kinase (Homo sapiens (Human), UniProt Q9P2K8); test: GCN2 Enzyme Inhibition Assay (Transcreener ADP2 fluorescence polarization); format: biochemical; details: 280 μM ATP, 200 μM (RS)7 peptide, 4 nM GCN2, 25° C.; for Ki: Ki(app)
Procedure, shortened: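 At 25 °C, GCN2 kinase (typical final concentration 4 nM) and (RS)7 peptide in Tris-HCl pH 7.5 buffer with MgCl2, NaCl and DTT were preincubated with compound for 10 min, then ATP was added for a 1 h reaction. ADP was read by FP with antibody/Alexa633 tracer. Non-linear tight-binding analysis gave IC50 and apparent Ki.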

[1] = target: intracellular GCN2 (phosphorylation of the GCN2 substrate eIF2α) (Homo sapiens (Human), UniProt Q9P2K8); test: GCN2 Cellular Inhibition Assay (AlphaScreen SureFire P-eIF2α Ser51, borrelidin-treated U2OS cells); format: cell-based; details: 10 μM borrelidin, 1 h, phosphorylated eIF2α Ser51, read-out: GCN2 Biomarker (IC50)
Chain of intracellular GCN2 (phosphorylation of the GCN2 substrate eIF2α) (Q9P2K8 whole entry): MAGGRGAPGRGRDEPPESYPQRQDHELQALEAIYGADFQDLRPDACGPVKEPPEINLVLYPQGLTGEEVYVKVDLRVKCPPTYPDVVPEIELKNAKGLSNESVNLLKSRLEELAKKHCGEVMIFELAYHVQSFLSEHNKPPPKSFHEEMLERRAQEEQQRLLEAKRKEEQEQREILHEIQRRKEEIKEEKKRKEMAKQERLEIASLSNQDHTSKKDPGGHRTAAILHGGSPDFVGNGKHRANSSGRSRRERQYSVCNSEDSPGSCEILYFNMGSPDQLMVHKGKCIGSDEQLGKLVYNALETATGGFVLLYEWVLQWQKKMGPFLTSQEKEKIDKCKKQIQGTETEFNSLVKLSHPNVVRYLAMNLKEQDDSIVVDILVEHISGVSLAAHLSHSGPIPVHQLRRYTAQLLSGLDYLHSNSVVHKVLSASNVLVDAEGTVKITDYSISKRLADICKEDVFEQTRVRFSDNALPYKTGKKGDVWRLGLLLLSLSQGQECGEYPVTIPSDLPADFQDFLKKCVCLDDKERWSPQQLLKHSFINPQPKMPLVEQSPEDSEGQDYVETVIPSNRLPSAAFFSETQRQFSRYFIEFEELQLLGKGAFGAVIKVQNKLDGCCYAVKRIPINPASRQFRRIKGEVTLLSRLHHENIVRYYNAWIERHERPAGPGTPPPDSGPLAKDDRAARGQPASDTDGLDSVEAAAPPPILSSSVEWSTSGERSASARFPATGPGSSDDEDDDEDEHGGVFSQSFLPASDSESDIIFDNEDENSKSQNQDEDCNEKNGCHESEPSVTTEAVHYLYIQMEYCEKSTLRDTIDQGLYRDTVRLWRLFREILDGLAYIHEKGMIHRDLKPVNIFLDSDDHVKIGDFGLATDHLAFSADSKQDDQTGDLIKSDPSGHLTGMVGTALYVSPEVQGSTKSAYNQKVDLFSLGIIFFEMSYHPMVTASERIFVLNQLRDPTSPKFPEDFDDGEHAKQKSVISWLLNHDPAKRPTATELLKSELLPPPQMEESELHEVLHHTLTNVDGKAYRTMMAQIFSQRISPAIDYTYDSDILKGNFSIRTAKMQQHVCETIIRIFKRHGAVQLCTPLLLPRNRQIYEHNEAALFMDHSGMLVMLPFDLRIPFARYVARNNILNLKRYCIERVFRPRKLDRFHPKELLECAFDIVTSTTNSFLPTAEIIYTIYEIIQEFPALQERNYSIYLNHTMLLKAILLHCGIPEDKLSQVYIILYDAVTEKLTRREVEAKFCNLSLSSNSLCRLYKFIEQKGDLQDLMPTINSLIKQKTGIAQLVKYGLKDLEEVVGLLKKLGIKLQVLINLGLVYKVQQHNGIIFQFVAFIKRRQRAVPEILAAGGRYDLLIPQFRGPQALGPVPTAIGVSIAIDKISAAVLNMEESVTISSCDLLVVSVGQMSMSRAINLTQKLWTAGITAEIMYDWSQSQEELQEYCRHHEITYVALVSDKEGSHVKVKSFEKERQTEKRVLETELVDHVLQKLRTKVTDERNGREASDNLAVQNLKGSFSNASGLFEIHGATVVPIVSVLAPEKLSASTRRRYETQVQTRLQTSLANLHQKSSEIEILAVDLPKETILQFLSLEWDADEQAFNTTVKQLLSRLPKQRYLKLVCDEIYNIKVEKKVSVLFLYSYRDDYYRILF
Procedure, shortened: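 Phospho-eIF2α (Ser51) measured by AlphaScreen SureFire in lysates of U2OS cells stimulated 1 h at 37 °C with 10 μM borrelidin alongside compound, 4-fold dilutions from 40 μM. Inhibition expressed as percent relative to borrelidin-alone controls.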

Chain of GCN2 kinase (Q9P2K8 whole entry): as above

Row | Compound | Ki (GCN2 kinase) | IC50 [1] | IC50 (GCN2 kinase)
1 | FC(F)(F)c1ccc2ncc(-c3nsc(N4CCOC(c5cn[nH]c5)C4)n3)n2c1 (centres unmarked) [I-104, 2-(1H-pyrazol-4-yl)-4-(3-(6-(trifluoromethyl)imidazo[1,2-a]pyridin-3-yl)-1,2,4-thiadiazol-5-yl)morpholine] | 0.01 to 0.1 µM | 0.5 to 5 µM | 
2 | FC(F)c1ccc2ncc(-c3nsc(N4CCOC(c5cn[nH]c5)C4)n3)n2c1 (centres unmarked) [I-105, 4-(3-(6-(difluoromethyl)imidazo[1,2-a]pyridin-3-yl)-1,2,4-thiadiazol-5-yl)-2-(1H-pyrazol-4-yl)morpholine] | 0.01 to 0.1 µM | > 5 µM | 
3 | CS(=O)(=O)NC[C@@H]1CN(c2nc(-c3cnc4ccc(C(F)(F)F)cn34)ns2)CCO1 [I-106, (S)—N-((4-(3-(6-(trifluoromethyl)imidazo[1,2-a]pyridin-3-yl)-1,2,4-thiadiazol-5-yl)morpholin-2-yl)methyl)methanesulfonamide] | 0.01 to 0.1 µM | > 5 µM | 
4 | CS(=O)(=O)NC[C@@H]1CN(c2nc(-c3cnc4ccc(C(F)F)cn34)ns2)CCO1 [I-107, (S)—N-((4-(3-(6-(difluoromethyl)imidazo[1,2-a]pyridin-3-yl)-1,2,4-thiadiazol-5-yl)morpholin-2-yl)methyl)methanesulfonamide] | < 0.01 µM | < 0.5 µM | 
5 | FC(F)(F)c1ccc2ncc(-c3nc(N4CCOC(c5cn[nH]c5)C4)ns3)n2c1 (centres unmarked) [I-108, 2-(1H-pyrazol-4-yl)-4-(5-(6-(trifluoromethyl)imidazo[1,2-a]pyridin-3-yl)-1,2,4-thiadiazol-3-yl)morpholine] | < 0.01 µM | < 0.5 µM | 
6 | CS(=O)(=O)NC[C@@H]1CN(c2nsc(-c3cnc4ccc(C(F)(F)F)cn34)n2)CCO1 [I-109, (S)—N-((4-(5-(6-(trifluoromethyl)imidazo[1,2-a]pyridin-3-yl)-1,2,4-thiadiazol-3-yl)morpholin-2-yl)methyl)methanesulfonamide] | 0.01 to 0.1 µM | 0.5 to 5 µM | 
7 | CS(=O)(=O)NCC1CCCN(c2nsc(-c3cnc4ccc(C(F)(F)F)cn34)n2)C1 (centres unmarked) [I-110, N-((1-(5-(6-(trifluoromethyl)imidazo[1,2-a]pyridin-3-yl)-1,2,4-thiadiazol-3-yl)piperidin-3-yl)methyl)methanesulfonamide] | < 0.01 µM | 0.5 to 5 µM | 
8 | CS(=O)(=O)NC[C@@H]1CN(c2nc(-c3cnc4ccc(C(F)(F)F)cn34)cs2)CCO1 [I-111, (S)—N-((4-(4-(6-(trifluoromethyl)imidazo[1,2-a]pyridin-3-yl)thiazol-2-yl)morpholin-2-yl)methyl)methanesulfonamide] | 0.01 to 0.1 µM | 0.5 to 5 µM | 
9 | CS(=O)(=O)NCC1CCCN(c2nc(-c3cnc4ccc(C(F)(F)F)cn34)ns2)C1 (centres unmarked) [I-112, N-((1-(3-(6-(trifluoromethyl)imidazo[1,2-a]pyridin-3-yl)-1,2,4-thiadiazol-5-yl)piperidin-3-yl)methyl)methanesulfonamide] | < 0.01 µM | 0.5 to 5 µM | 
10 | CS(=O)(=O)NC[C@@H]1CN(c2cncc(-c3cnc4ccc(Cl)cn34)n2)CCO1 [I-113, (S)—N-((4-(6-(6-chloroimidazo[1,2-a]pyridin-3-yl)pyrazin-2-yl)morpholin-2-yl)methyl)methanesulfonamide] | < 0.01 µM | 0.5 to 5 µM | 
11 | CN(C)C(=O)C1CCCN(c2ccnc(-c3cnc4ccc(C(F)(F)F)cn34)n2)C1 (centres unmarked) [I-130, N,N-dimethyl-1-(2-(6-(trifluoromethyl)imidazo[1,2-a]pyridin-3-yl)pyrimidin-4-yl)piperidine-3-carboxamide] |  | 0.5 to 5 µM | 0.01 to 0.1 µM
12 | COCCn1cc([C@H]2C[C@@H](C)CN(c3nccc(-c4cnc5ccc(C(F)(F)F)cn45)n3)C2)cn1 [I-143, 3-(2-((3R,5R)-3-(1-(2-methoxyethyl)-1H-pyrazol-4-yl)-5-methylpiperidin-1-yl)pyrimidin-4-yl)-6-(trifluoromethyl)imidazo[1,2-a]pyridine] |  | < 0.5 µM | 0.01 to 0.1 µM
13 | COCCn1cc([C@H]2C[C@H](C)CN(c3nccc(-c4cnc5ccc(C(F)(F)F)cn45)n3)C2)cn1 [I-144, 3-(2-((3R,5S)-3-(1-(2-methoxyethyl)-1H-pyrazol-4-yl)-5-methylpiperidin-1-yl)pyrimidin-4-yl)-6-(trifluoromethyl)imidazo[1,2-a]pyridine] |  | < 0.5 µM | 0.1 to 1 µM
14 | COCCn1cc([C@@H]2C[C@@H](C)CN(c3nccc(-c4cnc5ccc(C(F)(F)F)cn45)n3)C2)cn1 [I-145, 3-(2-((3S,5R)-3-(1-(2-methoxyethyl)-1H-pyrazol-4-yl)-5-methylpiperidin-1-yl)pyrimidin-4-yl)-6-(trifluoromethyl)imidazo[1,2-a]pyridine] |  | < 0.5 µM | 0.1 to 1 µM
15 | COCCn1cc([C@@H]2C[C@H](C)CN(c3nccc(-c4cnc5ccc(C(F)(F)F)cn45)n3)C2)cn1 [I-146, 3-(2-((3S,5S)-3-(1-(2-methoxyethyl)-1H-pyrazol-4-yl)-5-methylpiperidin-1-yl)pyrimidin-4-yl)-6-(trifluoromethyl)imidazo[1,2-a]pyridine] |  | 0.5 to 5 µM | 0.1 to 1 µM
16 | Cc1[nH]ncc1[C@H]1CN(c2ccnc(-c3cnc4ccc(C(F)(F)F)cn34)n2)C[C@H](C)O1 [I-147, (2 S,6 S)-2-methyl-6-(5-methyl-1H-pyrazol-4-yl)-4-(2-(6-(trifluoromethyl)imidazo[1,2-a]pyridin-3-yl)pyrimidin-4-yl)morpholine] |  | < 0.5 µM | 0.01 to 0.1 µM
17 | CC1CC(C(N)=O)CN(c2ccnc(-c3cnc4ccc(C(F)(F)F)cn34)n2)C1 (centres unmarked) [I-149, 5-Methyl-1-[2-(6-trifluoromethyl-imidazo[1,2-a]pyridin-3-yl)-pyrimidin-4-yl]-piperidine-3-carboxylic acid amide] | < 0.01 µM | < 0.5 µM | < 0.01 µM
18 | NC(=O)[C@@H]1CN(c2ccnc(-c3cnc4ccc(C(F)(F)F)cn34)n2)CCO1 [I-150, (S)-4-(2-(6-(trifluoromethyl)imidazo[1,2-a]pyridin-3-yl)pyrimidin-4-yl)morpholine-2-carboxamide] |  | < 0.5 µM | 0.01 to 0.1 µM
19 | NC(=O)[C@H]1CCCN(c2nccc(-c3cnc4ccc(C(F)(F)F)cn34)n2)C1 [I-153, (S)-1-(4-(6-(trifluoromethyl)imidazo[1,2-a]pyridin-3-yl)pyrimidin-2-yl)piperidine-3-carboxamide] |  | < 0.5 µM | < 0.01 µM
20 | Cc1nn(C)cc1[C@@H]1CN(c2nccc(-c3cnc4ccc(C(F)(F)F)cn34)n2)C[C@H](C)O1 [I-157, (2R,6S)-2-(1,3-dimethyl-1H-pyrazol-4-yl)-6-methyl-4-(4-(6-(trifluoromethyl)imidazo[1,2-a]pyridin-3-yl)pyrimidin-2-yl)morpholine] |  | < 0.5 µM | 0.1 to 1 µM

Further lines, results first:

Row | Ki (GCN2 kinase) | IC50 [1] | IC50 (GCN2 kinase) | Compound
21 |  | 0.5 to 5 µM | 0.01 to 0.1 µM | C[C@@H]1C[C@H](N=S(C)(C)=O)CN(c2nccc(-c3cnc4ccc(C(F)(F)F)cn34)n2)C1 [I-169, dimethyl(((3 S,5R)-5-methyl-1-(4-(6-(trifluoromethyl)imidazo[1,2-a]pyridin-3-yl)pyrimidin-2-yl)piperidin-3-yl)imino)-λ6-sulfanone]
22 |  | < 0.5 µM | 0.01 to 0.1 µM | C[C@@H]1CN(c2nccc(-c3cnc4ccc(C(F)(F)F)cn34)n2)[C@H](C)C(c2cn[nH]c2)N1 (stereo partly drawn) [I-171, 3-(2-((2R,5R)-2,5-dimethyl-3-(1H-pyrazol-4-yl)piperazin-1-yl)pyrimidin-4-yl)-6-(trifluoromethyl)imidazo[1,2-a]pyridine]
23 |  | < 0.5 µM | 0.01 to 0.1 µM | Cc1[nH]ncc1C1N[C@@H](C)CN(c2nccc(-c3cnc4ccc(C(F)(F)F)cn34)n2)[C@H]1C (stereo partly drawn) [I-172, 3-(2-((2S,5S)-2,5-dimethyl-3-(5-methyl-1H-pyrazol-4-yl)piperazin-1-yl)pyrimidin-4-yl)-6-(trifluoromethyl)imidazo[1,2-a]pyridine]
24 |  | < 0.5 µM | 0.01 to 0.1 µM | C[C@@H]1CN(c2ccnc(-c3cnc4ccc(Cl)cn34)n2)C[C@@H](C(N)=O)O1 [I-177, (2S,6R)-4-(2-(6-chloroimidazo[1,2-a]pyridin-3-yl)pyrimidin-4-yl)-6-methylmorpholine-2-carboxamide]
25 |  | < 0.5 µM | < 0.01 µM | Cc1[nH]ncc1[C@H]1CN(c2nccc(-c3cnc4ccc(Cl)cn34)n2)C[C@@H](C)O1 [I-180, (2R,6S)-4-(4-(6-chloroimidazo[1,2-a]pyridin-3-yl)pyrimidin-2-yl)-2-methyl-6-(5-methyl-1H-pyrazol-4-yl)morpholine]
26 |  | < 0.5 µM | 0.01 to 0.1 µM | NC(=O)[C@H]1CCCN(c2nccc(-c3cnc4ccc(Cl)cn34)n2)C1 [I-183, (S)-1-(4-(6-chloroimidazo[1,2-a]pyridin-3-yl)pyrimidin-2-yl)piperidine-3-carboxamide]
27 |  | < 0.5 µM | < 0.01 µM | Cc1cnc(N2C[C@@H](C)C[C@@H](c3cn[nH]c3)C2)nc1-c1cnc2ccc(Cl)cn12 [I-186, 6-chloro-3-(5-methyl-2-((3S,5S)-3-methyl-5-(1H-pyrazol-4-yl)piperidin-1-yl)pyrimidin-4-yl)imidazo[1,2-a]pyridine]
28 |  | < 0.5 µM | < 0.01 µM | N#Cc1ccc2ncc(-c3nccc(N4CCOC(c5cn[nH]c5C(F)F)C4)n3)n2c1 (centres unmarked) [I-193, 3-(4-(2-(5-(difluoromethyl)-1H-pyrazol-4-yl)morpholino)pyrimidin-2-yl)imidazo[1,2-a]pyridine-6-carbonitrile]
29 |  | < 0.5 µM | < 0.01 µM | C[C@@H]1C[C@H](c2cn[nH]c2)CN(c2nccc(-c3cnc4ccc(Cl)cn34)n2)C1 [I-196, 6-chloro-3-(2-((3R,5R)-3-methyl-5-(1H-pyrazol-4-yl)piperidin-1-yl)pyrimidin-4-yl)imidazo[1,2-a]pyridine]
